Values after ≈ are worked out from the molar mass of the structure shown. Read-outs that look alike come from different tables or passages of the source.
Legend:
[1] = Metabolic half-life and clearance (HLM); format: in vitro ADME
BCRP = target: T1, BCRP (Homo sapiens, UniProt Q9UNQ0); test: BCRP efflux; format: in vitro ADME; settings: Table 9
T1 sequence (Q9UNQ0 1-655): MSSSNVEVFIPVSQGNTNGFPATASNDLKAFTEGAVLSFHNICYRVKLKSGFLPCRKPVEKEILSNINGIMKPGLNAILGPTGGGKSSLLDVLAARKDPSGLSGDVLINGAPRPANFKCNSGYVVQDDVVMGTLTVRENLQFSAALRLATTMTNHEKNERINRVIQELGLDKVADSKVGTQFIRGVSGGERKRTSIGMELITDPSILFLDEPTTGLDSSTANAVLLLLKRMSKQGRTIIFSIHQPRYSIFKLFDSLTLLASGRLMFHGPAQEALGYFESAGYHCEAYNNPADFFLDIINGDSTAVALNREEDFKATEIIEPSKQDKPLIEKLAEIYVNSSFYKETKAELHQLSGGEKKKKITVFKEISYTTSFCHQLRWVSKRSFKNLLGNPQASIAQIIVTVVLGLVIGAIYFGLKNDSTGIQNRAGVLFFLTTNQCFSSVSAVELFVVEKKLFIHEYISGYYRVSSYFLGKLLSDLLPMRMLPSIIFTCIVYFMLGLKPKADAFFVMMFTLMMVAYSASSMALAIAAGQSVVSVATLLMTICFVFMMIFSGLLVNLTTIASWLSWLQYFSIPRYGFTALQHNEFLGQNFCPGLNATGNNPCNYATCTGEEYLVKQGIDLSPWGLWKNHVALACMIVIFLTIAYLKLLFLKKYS
Excerpt: (§1) Preliminary In Vitro Pharmacokinetic Assays.

[2] = Parallel artificial membrane permeability assay (PAMPA); format: in vitro ADME; settings: passive permeability
Excerpt: as §1

P-glycoprotein (P-gp) = P-glycoprotein (P-gp) (Homo sapiens, UniProt P08183); test: P-glycoprotein (P-gp) efflux; format: in vitro ADME; settings: for P-gp: Table 9
Excerpt: as §1

[3] = test system: primary murine Hh-dependent MB cell line (MERP); test: Antiproliferation in primary Hh-dependent MB cells (MERP); format: cell-based; settings: Mus musculus, Table 6
Method: Secondary In Vitro Evaluation. Based on their activity in ASZ cells, several compounds were evaluated further in a primary murine Hh-dependent MB cell line (MERP).
(§2) General Information for Cell Culture Studies Protocols for general cell culture, qPCR, and Hh inhibition ASZ cells are as previously described.
(§3) General Information for Cell Culture Studies. Protocols for general cell culture, qPCR, and Hh inhibition ASZ cells are as previously described.

Hh pathway = settings: background; read-out: IC50 (Hh pathway inhibitor); cited from earlier work
[4] = test system: Gli1 mRNA levels in the murine BCC cell line ASZ-001 (Hh pathway); test: Hh pathway inhibition: endogenous Gli1 mRNA (qRT-PCR) in ASZ-001 cells; format: cell-based; settings: Mus musculus
Method: Initial Hh inhibition studies.
as §2, §3
Gene Expression Assay Protocol (ASZ-001): Cells are seeded (10,000 cells per well; 100 μL total volume per well) in a 96-well tissue culture plate. After 24 h of incubation (37° C., 5% CO2), growth media was removed and replaced with low FBS media. Cells were incubated for an additional 24 h. After this time, DMSO (vehicle control) and liposomes (Aqueous Solution) were added to the wells. […]
Rt-PCR Protocol: Following treatment and incubation periods, both RNA extraction and cDNA synthesis were performed using a TaqMan Cells-to-CT (fast) kit. cDNA synthesis utilized a BioRad MyCycler and was programmed according to the manufacturer's instructions. Quantitative RT-PCR was performed on an ABI 7500 system and made use of the following TaqMan Gene Expression Probes: mouse ActB (Mm00607939_s1) and mouse Gli1 (Mm00494654_m1). Relative gene expression levels were computed via ΔΔCT method using GraphPad Prism. Corresponding IC50 values were calculated as mean±SEM for at least three separate experiments performed in triplicate.

[5] = test system: Gli1 mRNA levels in the murine BCC cell line ASZ-001 (Hh pathway); settings: background, read-out: IC50 (Hh signaling); cited from earlier work

P-glycoprotein (P-gp), sequence (P08183 whole entry): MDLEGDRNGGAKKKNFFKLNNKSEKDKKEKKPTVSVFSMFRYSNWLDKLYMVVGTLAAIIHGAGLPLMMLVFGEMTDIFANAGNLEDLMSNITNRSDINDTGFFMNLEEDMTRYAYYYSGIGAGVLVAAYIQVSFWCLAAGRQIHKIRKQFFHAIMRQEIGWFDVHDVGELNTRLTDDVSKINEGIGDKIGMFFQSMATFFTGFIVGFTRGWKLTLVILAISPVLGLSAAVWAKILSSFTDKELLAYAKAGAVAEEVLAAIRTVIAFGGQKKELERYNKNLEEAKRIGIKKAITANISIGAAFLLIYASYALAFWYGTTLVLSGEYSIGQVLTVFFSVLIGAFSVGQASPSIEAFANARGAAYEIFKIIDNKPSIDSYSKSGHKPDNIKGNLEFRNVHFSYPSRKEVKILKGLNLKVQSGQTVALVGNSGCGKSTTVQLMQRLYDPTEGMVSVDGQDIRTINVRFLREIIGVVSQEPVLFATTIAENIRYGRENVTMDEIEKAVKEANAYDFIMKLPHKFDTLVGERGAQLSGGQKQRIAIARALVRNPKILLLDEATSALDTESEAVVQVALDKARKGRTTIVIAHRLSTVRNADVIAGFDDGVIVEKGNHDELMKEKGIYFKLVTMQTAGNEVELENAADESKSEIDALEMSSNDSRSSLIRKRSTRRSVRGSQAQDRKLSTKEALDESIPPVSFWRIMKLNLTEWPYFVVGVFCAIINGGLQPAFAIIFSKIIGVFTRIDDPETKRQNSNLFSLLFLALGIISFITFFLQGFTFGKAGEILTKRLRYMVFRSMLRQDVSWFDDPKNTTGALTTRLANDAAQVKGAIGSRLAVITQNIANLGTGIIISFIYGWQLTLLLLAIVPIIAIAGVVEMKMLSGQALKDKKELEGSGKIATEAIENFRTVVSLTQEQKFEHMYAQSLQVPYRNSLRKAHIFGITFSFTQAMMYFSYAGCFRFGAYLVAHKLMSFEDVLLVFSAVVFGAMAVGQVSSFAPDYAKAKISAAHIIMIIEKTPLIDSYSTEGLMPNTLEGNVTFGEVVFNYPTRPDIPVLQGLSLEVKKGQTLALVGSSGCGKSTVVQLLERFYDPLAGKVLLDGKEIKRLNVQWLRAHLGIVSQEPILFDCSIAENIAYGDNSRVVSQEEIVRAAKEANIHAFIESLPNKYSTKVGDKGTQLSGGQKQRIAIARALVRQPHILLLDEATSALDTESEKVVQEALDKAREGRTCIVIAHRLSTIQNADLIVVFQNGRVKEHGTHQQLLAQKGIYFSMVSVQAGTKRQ

SMILES	T1/2 (HLM, min) [1]	Solubility (Solubility)	BCRP (BCRP)	PAMPA [2]	P-gp (P-glycoprotein (P-gp))	IC50 [3]	IC50 (Hh pathway)	IC50 ([4]; ASZ001, 48 h, read-out: IC50 (μM) 48 h)	IC50 ([4]; ASZ001, 96 h, read-out: IC50 (μM) 96 h)	IC50 [5]	IC50 ([4]; ASZ001, 48 h)	P-gp (Efflux) (P-glycoprotein (P-gp); Table P1)
C[C@]1(c2ccc(Cl)cc2Cl)OC[C@@H](COc2ccc(N3CCN(c4ccc(NC(=O)c5cccnc5)cc4)CC3)cc2)O1 [Compound 18, N-(4-(4-(4-(((2S,4R)-2-(2,4-dichlorophenyl)-2-methyl-1,3-dioxolan-4-yl)methoxy)phenyl)piperazin-1-yl)phenyl)nicotinamide]	significantly different half-lives	0.0069 µM (≈ 0.00427 µg/mL)	No	Poor	No	1.1 ± 0.6 µM						
CCC(C)n1ncn(-c2ccc(N3CCN(c4ccc(OCC5COC(Cn6cncn6)(c6ccc(Cl)cc6Cl)O5)cc4)CC3)cc2)c1=O (centres unmarked) [ITZ, Itraconazole, reference compound]	27.0 ± 6.2 min	0.8 µM (≈ 0.565 µg/mL)	No	Moderate	No		0.69 µM	0.11 ± 0.025 µM	0.14 ± 0.012 µM			
CC[C@@H]([C@H](C)O)n1ncn(-c2ccc(N3CCN(c4ccc(OC[C@@H]5CO[C@@](Cn6cncn6)(c6ccc(F)cc6F)C5)cc4)CC3)cc2)c1=O [PSZ, Posaconazole]										0.54 µM	0.5 ± 0.1 µM	substrate for P-gp

From patent publication US11390613B2, “Azole analogues and methods of use thereof” (UNIVERSITY OF CONNECTICUT, priority 2017, dated 2022)
